Measured values: patent US9757332B2, “Gel-like composition having high ubiquinol content” (UHA Mikakuto Co., Ltd., priority 2013, dated 2017)

Experiment: Observation of particles under optical microscope (Test Example I-4)
Type: physicochemical
Conditions: magnification of 400 times

COc1c(O)c(C)c(C/C=C(\C)CC/C=C(\C)CC/C=C(\C)CC/C=C(\C)CC/C=C(\C)CC/C=C(\C)CC/C=C(\C)CC/C=C(\C)CC/C=C(\C)CCC=C(C)C)c(O)c1OC [ubiquinol powder (Kaneka QH), ubiquinol]
crystals observed under optical microscope: irregular crystal structure
